The supplement of paper PMC10307832

What was measured:
BI-D1870 = compound: CC(C)CCN1c2nc(Nc3cc(F)c(O)c(F)c3)ncc2N(C)C(=O)C1C [BI-D1870]; assay: relative viability (nuclei count vs DMSO), 5 days (fraction); higher = more cells survive
Summary of the method: (§1)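 A plate was accepted only when its control CV was below 25% and the cells had doubled at least once. Viability is defined from nuclear counts as treated wells divided by vehicle wells, with the median taken across plates. That median covers lung cancer cell lines grown in 1536-well plates, dosed by pinning at five √10-spaced library-drug concentrations, and counted in MetaXpress from 4× Hoechst images after 5 days.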

Zebularine = compound: O=c1ncccn1[C@@H]1O[C@H](CO)[C@@H](O)[C@H]1O [Zebularine]; assay: as above
Summary of the method: as §1

Cell Line | relative viability (BI-D1870; 0.04 µM) | relative viability (BI-D1870; 0.1265 µM) | relative viability (BI-D1870; 0.4 µM) | relative viability (BI-D1870; 1.265 µM) | relative viability (BI-D1870; 4 µM) | relative viability (Zebularine; 1 µM) | relative viability (Zebularine; 3.162 µM) | relative viability (Zebularine; 10 µM) | relative viability (Zebularine; 31.62 µM) | relative viability (Zebularine; 100 µM)
HCC-44 | 1.04 | 0.876 | 0.989 | 1.07 | 1.03 | 1.05 | 1.02 | 0.701 | 0.843 | 0.44
HCC-78 | 0.952 | 1 | 0.97 | 1.16 | 0.875 | 1.07 | 0.945 | 0.626 | 0.916 | 0.387
HCC-366 | 1.02 | 0.928 | 0.995 | 1.04 | 0.951 | 1.03 | 0.995 | 0.928 | 0.856 | 0.297
HCC-827 | 1.05 | 1.05 | 1.04 | 1.03 | 1.01 | 1.08 | 1.03 | 0.851 | 0.877 | 0.47
HOP-62 | 1.18 | 1.01 | 0.965 | 1.03 | 0.949 | 1.11 | 0.911 | 0.564 | 0.287 | 0.213
IA-LM | 1.13 | 0.863 | 0.913 | 1.05 | 0.646 | 1.12 | 0.809 | – | 1.14 | 0.863
LC-2-ad | 1.08 | 0.957 | 1.02 | 1.01 | 0.868 | 1.02 | 0.937 | 0.653 | 0.719 | 0.355
LCLC-97TM1 | 1.3 | 0.978 | 0.756 | 1.1 | 0.841 | 1.03 | 0.913 | 0.652 | 0.335 | 0.143
LCLC-103H | 1.03 | 0.967 | 0.94 | 1.06 | 0.838 | 0.959 | 0.987 | 0.867 | 1.04 | 0.842
LK-2 | 1.14 | 1 | 1.28 | 1.21 | 0.973 | 1 | 1.03 | 0.556 | 0.544 | 0.392
LOU-NH91 | 1.05 | 0.945 | 0.895 | 1.04 | 0.729 | 0.976 | 1.01 | 0.875 | 0.979 | 0.725
LU99A | 1.01 | 0.822 | 0.98 | 0.827 | 0.77 | 1.06 | 0.997 | 0.883 | 0.689 | 0.246
LXF-289 | 1.01 | 0.946 | 0.973 | 1.02 | 0.846 | 1.06 | 0.889 | 0.931 | 0.831 | 0.346
NCI-H23 | 1.21 | 0.874 | 0.868 | 0.939 | 0.575 | 1.1 | 0.91 | 0.632 | 0.983 | 0.881
NCI-H322M | 0.964 | 0.907 | 0.82 | 0.728 | 0.748 | 0.98 | 0.928 | 0.784 | 0.888 | 0.673
NCI-H358 | 1.07 | 0.834 | 0.803 | 0.916 | 0.775 | 0.884 | 0.951 | 0.596 | 0.491 | 0.346
NCI-H441 | 1.08 | 0.922 | 0.888 | 1.1 | 1.17 | 1.26 | 0.852 | 0.502 | 0.309 | 0.272
